Where two headings read alike, the source gives them in different places.
What was measured:
human CB-2 receptor = target: T1, human CB-2 receptor (Homo sapiens, UniProt P34972); experiment: Binding assay, cannabinoid CB2 receptor ([3H]-CP-55,940 displacement); conditions: read-out: CB2 binding percent inhibition
T1 construct: expressed in transfected cells; host or cells: SK-N-MC cells, pcDNA3 CB-2 (human), semi-purified membranes
Outline: (§1)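 Displacement of 0.2 nM [3H]-CP-55,940 (non-specific: 10 uM WIN 55,212) was run on semi-purified membranes of transfected SK-N-MC cells carrying human CB-1 or CB-2, 90 min, 30° C, pH 7.5. Scintillation counting; IC50 by linear regression, else % inhibition at 0.2, 1 or 10 μM.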

human CB1 receptor = human CB1 receptor (Homo sapiens, UniProt P21554); experiment: Binding assay, cannabinoid CB1 receptor ([3H]-CP-55,940 displacement); set-up: expressed in transfected cells; host or cells: SK-N-MC cells, pcDNA3 CB-1 (human), semi-purified membranes; conditions: for inhibition at 0.2 µM: test concentration 0.2 μM (superscript a), read-out: CB1 binding percent inhibition
Sequence of human CB1 receptor (P21554 whole entry): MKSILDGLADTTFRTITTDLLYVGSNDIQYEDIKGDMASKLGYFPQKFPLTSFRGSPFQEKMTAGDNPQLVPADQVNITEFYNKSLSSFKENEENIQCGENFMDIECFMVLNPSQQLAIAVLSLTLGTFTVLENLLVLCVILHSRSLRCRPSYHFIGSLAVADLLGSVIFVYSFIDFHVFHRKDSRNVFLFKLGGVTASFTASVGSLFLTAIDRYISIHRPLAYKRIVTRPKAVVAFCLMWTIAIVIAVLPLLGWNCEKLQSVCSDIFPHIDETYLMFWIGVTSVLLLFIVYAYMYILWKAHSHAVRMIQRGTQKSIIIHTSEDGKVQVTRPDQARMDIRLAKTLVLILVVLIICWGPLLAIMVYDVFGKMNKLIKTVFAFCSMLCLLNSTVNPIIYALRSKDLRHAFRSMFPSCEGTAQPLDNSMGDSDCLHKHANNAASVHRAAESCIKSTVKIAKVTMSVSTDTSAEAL
Outline: as §1

[1] = test concentration 0.2 μM (superscript a)

T1 sequence (P34972 whole entry): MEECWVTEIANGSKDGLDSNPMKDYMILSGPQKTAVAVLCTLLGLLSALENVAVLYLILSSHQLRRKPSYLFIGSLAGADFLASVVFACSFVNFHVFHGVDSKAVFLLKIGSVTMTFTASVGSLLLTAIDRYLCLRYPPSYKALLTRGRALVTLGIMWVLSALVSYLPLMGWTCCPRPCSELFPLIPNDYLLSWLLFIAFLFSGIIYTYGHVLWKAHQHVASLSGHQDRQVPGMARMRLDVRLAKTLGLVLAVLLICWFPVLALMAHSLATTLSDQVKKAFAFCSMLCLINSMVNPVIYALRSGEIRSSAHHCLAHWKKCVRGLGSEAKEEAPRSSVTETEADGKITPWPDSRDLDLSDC

SMILES	inhibition at 0.2 µM (human CB-2 receptor; [1]) [%]	inhibition at 0.2 µM (human CB1 receptor) [%]	IC50 (human CB1 receptor) [nM]	inhibition at 0.2 µM (human CB-2 receptor) [%]
O=C(NN1CCCCC1)c1nn(-c2ccc(Cl)cc2)c2c1C[S+]([O-])C/C2=C\c1ccc(F)cc1 (stereo not shown) [Cpd 96, (7Z)-1-(4-chloro-phenyl)-7-(4-fluoro-benzylidene)-5-oxo-4,5,6,7-tetrahydro-1H-5λ^4-thiopyrano[4,3-c]pyrazole-3-carboxylic acid piperidin-1-ylamide]	9	43		
O=C(NN1CC2CCCC2C1)c1nn(-c2ccc(Cl)cc2)c2c1CS(=O)(=O)C/C2=C\c1ccc(F)cc1 (stereo not shown) [Cpd 97, (7Z)-1-(4-chloro-phenyl)-7-(4-fluoro-benzylidene)-5,5-dioxo-4,5,6,7-tetrahydro-1H-5λ^6-thiopyrano[4,3-c]pyrazole-3-carboxylic acid (hexahydro-cyclopenta[c]pyrrol-2-yl)-amide]	8		68	
O=C(c1nn(-c2ccc(Cl)cc2)c2c1CS(=O)(=O)C/C2=C\c1ccc(F)cc1)N1CCCCC1 [Cpd 98, (7Z)-[1-(4-chloro-phenyl)-7-(4-fluoro-benzylidene)-5,5-dioxo-4,5,6,7-tetrahydro-1H-5λ^6-thiopyrano[4,3-c]pyrazol-3-yl]-piperidin-1-yl-methanone]	14	51		
O=C(NN1CCCCC1)c1nn(-c2ccc(Cl)cc2)c2c1CS(=O)(=O)C/C2=C\c1ccc(F)cc1 [Cpd 99, (7Z)-1-(4-chloro-phenyl)-7-(4-fluoro-benzylidene)-5,5-dioxo-4,5,6,7-tetrahydro-1H-5λ^6-thiopyrano[4,3-c]pyrazole-3-carboxylic acid piperidin-1-ylamide]	12	66		
CN(NC(=O)c1nn(-c2ccc(Cl)cc2)c2c1CS(=O)(=O)C/C2=C\c1ccc(F)cc1)c1ccccc1 [Cpd 100, (7Z)-1-(4-chloro-phenyl)-7-(4-fluoro-benzylidene)-5,5-dioxo-4,5,6,7-tetrahydro-1H-5λ^6-thiopyrano[4,3-c]pyrazole-3-carboxylic acid N′-methyl-N′-phenyl-hydrazide]			25	9
O=C(c1nn(-c2ccc(Cl)cc2Cl)c2c1CS(=O)(=O)C/C2=C\c1ccc(F)cc1)N1CCCCC1 [Cpd 101, (7Z)-[1-(2,4-dichloro-phenyl)-7-(4-fluoro-benzylidene)-5,5-dioxo-4,5,6,7-tetrahydro-1H-5λ^6-thiopyrano[4,3-c]pyrazol-3-yl]-piperidin-1-yl-methanone]	24	61		
O=C(NN1CCCC1)c1nn(-c2ccc(Cl)cc2)c2c1CSC/C2=C\c1ccc(F)cc1 [Cpd 102, (7Z)-1-(4-chloro-phenyl)-7-(4-fluoro-benzylidene)-1,4,6,7-tetrahydro-thiopyrano[4,3-c]pyrazole-3-carboxylic acid pyrrolidin-1-ylamide]	23	76		
O=C(NN1CC2CCCC2C1)c1nn(-c2ccc(Cl)cc2)c2c1CSC/C2=C\c1ccc(F)cc1 (stereo not shown) [Cpd 103, (7Z)-1-(4-chloro-phenyl)-7-(4-fluoro-benzylidene)-1,4,6,7-tetrahydro-thiopyrano[4,3-c]pyrazole-3-carboxylic acid (hexahydro-cyclopenta[c]pyrrol-2-yl)-amide]	5	62		
O=C(NN1CC2CCCC2C1)c1nn(-c2ccc(Cl)cc2Cl)c2c1CS(=O)(=O)C/C2=C\c1ccc(F)cc1 (stereo not shown) [Cpd 104, (7Z)-1-(2,4-dichloro-phenyl)-7-(4-fluoro-benzylidene)-5,5-dioxo-4,5,6,7-tetrahydro-1H-5λ^6-thiopyrano[4,3-c]pyrazole-3-carboxylic acid (hexahydro-cyclopenta[c]pyrrol-2-yl)-amide]	10	76		
O=C(NN1CC2CCCC2C1)c1nn(-c2ccc(F)cc2F)c2c1CS(=O)(=O)C/C2=C\c1ccc(F)cc1 (stereo not shown) [Cpd 105, (7Z)-1-(2,4-difluoro-phenyl)-7-(4-fluoro-benzylidene)-5,5-dioxo-4,5,6,7-tetrahydro-1H-5λ^6-thiopyrano[4,3-c]pyrazole-3-carboxylic acid (hexahydro-cyclopenta[c]pyrrol-2-yl)-amide]	11	50		
O=C(NN1CCCCC1)c1nn(-c2ccc(F)cc2F)c2c1CS(=O)(=O)C/C2=C\c1ccc(F)cc1 [Cpd 106, (7Z)-1-(2,4-difluoro-phenyl)-7-(4-fluoro-benzylidene)-5,5-dioxo-4,5,6,7-tetrahydro-1H-5λ^6-thiopyrano[4,3-c]pyrazole-3-carboxylic acid piperidin-1-ylamide]	6	32		
O=C(NN1CCCCCC1)c1nn(-c2ccc(Cl)cc2Cl)c2c1CS(=O)(=O)C/C2=C\c1ccc(F)cc1 [Cpd 107, (7Z)-1-(2,4-dichloro-phenyl)-7-(4-fluoro-benzylidene)-5,5-dioxo-4,5,6,7-tetrahydro-1H-5λ^6-thiopyrano[4,3-c]pyrazole-3-carboxylic acid azepan-1-ylamide]	23	92		
CC1CCCC(C)N1NC(=O)c1nn(-c2ccc(Cl)cc2Cl)c2c1CS(=O)(=O)C/C2=C\c1ccc(F)cc1 (stereo not shown) [Cpd 108, (7Z)-1-(2,4-dichloro-phenyl)-7-(4-fluoro-benzylidene)-5,5-dioxo-4,5,6,7-tetrahydro-1H-5λ^6-thiopyrano[4,3-c]pyrazole-3-carboxylic acid (2,6-dimethyl-piperidin-1-yl)-amide]	18	88		
CN1CCN(NC(=O)c2nn(-c3ccc(Cl)cc3Cl)c3c2CS(=O)(=O)C/C3=C\c2ccc(F)cc2)CC1 [Cpd 109, (7Z)-1-(2,4-dichloro-phenyl)-7-(4-fluoro-benzylidene)-5,5-dioxo-4,5,6,7-tetrahydro-1H-5λ^6-thiopyrano[4,3-c]pyrazole-3-carboxylic acid (4-methyl-piperazin-1-yl)-amide]	6	4		
O=C(NN1CCN(CCO)CC1)c1nn(-c2ccc(Cl)cc2Cl)c2c1CS(=O)(=O)C/C2=C\c1ccc(F)cc1 [Cpd 110, (7Z)-1-(2,4-dichloro-phenyl)-7-(4-fluoro-benzylidene)-5,5-dioxo-4,5,6,7-tetrahydro-1H-5λ^6-thiopyrano[4,3-c]pyrazole-3-carboxylic acid [4-(2-hydroxy-ethyl)-piperazin-1-yl]-amide]	7	13		
CC1CCCC(C)N1NC(=O)c1nn(-c2ccc(Cl)cc2Cl)c2c1CSC/C2=C\c1ccc(F)cc1 (stereo not shown) [Cpd 111, (7Z)-1-(2,4-dichloro-phenyl)-7-(4-fluoro-benzylidene)-1,4,6,7-tetrahydro-thiopyrano[4,3-c]pyrazole-3-carboxylic acid (2,6-dimethyl-piperidin-1-yl)-amide]	16		14	
O=C(NN1CCCCCC1)c1nn(-c2ccc(Cl)cc2Cl)c2c1CSC/C2=C\c1ccc(F)cc1 [Cpd 112, (7Z)-1-(2,4-dichloro-phenyl)-7-(4-fluoro-benzylidene)-1,4,6,7-tetrahydro-thiopyrano[4,3-c]pyrazole-3-carboxylic acid azepan-1-ylamide]	8		10	
CN1CCN(NC(=O)c2nn(-c3ccc(Cl)cc3Cl)c3c2CSC/C3=C\c2ccc(F)cc2)CC1 [Cpd 113, (7Z)-1-(2,4-dichloro-phenyl)-7-(4-fluoro-benzylidene)-1,4,6,7-tetrahydro-thiopyrano[4,3-c]pyrazole-3-carboxylic acid (4-methyl-piperazin-1-yl)-amide]	0	17		
O=C(NN1CCN(CCO)CC1)c1nn(-c2ccc(Cl)cc2Cl)c2c1CSC/C2=C\c1ccc(F)cc1 [Cpd 114, (7Z)-1-(2,4-dichloro-phenyl)-7-(4-fluoro-benzylidene)-1,4,6,7-tetrahydro-thiopyrano[4,3-c]pyrazole-3-carboxylic acid [4-(2-hydroxy-ethyl)-piperazin-1-yl]-amide]	5	6		
O=C(NNC1CCCCC1)c1nn(-c2ccc(Cl)cc2Cl)c2c1CSC/C2=C\c1ccc(F)cc1 [Cpd 115, (7Z)-1-(2,4-dichloro-phenyl)-7-(4-fluoro-benzylidene)-1,4,6,7-tetrahydro-thiopyrano[4,3-c]pyrazole-3-carboxylic acid N′-cyclohexyl-hydrazide]	19		79	
O=C(NN1CC2CCCC2C1)c1nn(-c2ccc(Cl)cc2Cl)c2c1CSC/C2=C\c1ccc(F)cc1 (stereo not shown) [Cpd 116, (7Z)-1-(2,4-dichloro-phenyl)-7-(4-fluoro-benzylidene)-1,4,6,7-tetrahydro-thiopyrano[4,3-c]pyrazole-3-carboxylic acid (hexahydro-cyclopenta[c]pyrrol-2-yl)-amide]	18		11	
C[C@@H](NC(=O)c1nn(-c2ccc(Cl)cc2Cl)c2c1CS(=O)(=O)C/C2=C\c1ccc(Cl)o1)c1ccccc1 [Cpd 117, (7Z)-7-(5-chloro-furan-2-ylmethylene)-1-(2,4-dichloro-phenyl)-5,5-dioxo-4,5,6,7-tetrahydro-1H-5λ^6-thiopyrano[4,3-c]pyrazole-3-carboxylic acid [(1R)-1-phenyl-ethyl]-amide]			9	18
C[C@@H](NC(=O)c1nn(-c2ccc(Cl)cc2Cl)c2c1CS(=O)(=O)C/C2=C\c1ccc(Cl)o1)C1CCCCC1 [Cpd 118, (7Z)-7-(5-chloro-furan-2-ylmethylene)-1-(2,4-dichloro-phenyl)-5,5-dioxo-4,5,6,7-tetrahydro-1H-5λ^6-thiopyrano[4,3-c]pyrazole-3-carboxylic acid [(1R)-1-cyclohexyl-ethyl]-amide]	11		8	

— patent US7524964B2, “Tetrahydrothiopyrano pyrazole cannabinoid modulators” (Janssen Pharmaceutica NV, priority 2005, dated 2009)
